From patent publication US20200368247A1, “CENICRIVIROC FOR THE TREATMENT OF FIBROSIS” (Tobira Therapeutics, Inc., priority 2014, published 2020)
Values joined by “and” are separate entries in the source; they are usually repeats but may differ in a detail not shown here. Equal entries are not always repeated.

What was measured:
[1] = Study 202 ECG abnormalities; format: in vivo, human; settings: CVC 200 mg (N = 57), through Week 48
[2] = Phase 1 studies in healthy volunteer subjects; format: in vivo, human
Excerpt: The frequency and magnitude of transaminase elevations observed across these studies was consistent with the pattern described for Phase 1 studies in scientific literature. […] In both studies and at all doses CVC presented a favorable adverse event profile. […] No clinically relevant changes in ECG parameters or changes for any vital sign parameters were observed during the 48-week treatment period. No apparent dose or exposure relationship for adverse events, laboratory abnormalities (including CPK, ALT, AST and bilirubin elevations) or dose-limiting toxicities were observed.

[3] = tested on: HIV-1; test: Study 201 PK/PD Emax model; format: in vivo, human
Excerpt: Drug response was characterized using the following maximum effect (Emax) model:
where E is effect, E0 is the baseline effect (fixed to 0), Imax is the maximum inhibition, C denotes the PK variable (AUC0-24, Cmax, or steady-state concentration [Css]), IC50 is the value of the PK variable which corresponds to 50% of the maximum inhibition and y is the shape parameter which describes the degree of sigmoidicity.

[4] = molecular target: CCR5 (Homo sapiens, UniProt P51681); test: CCR5 receptor occupancy / RANTES-induced CCR5 internalization in PBMCs, flow cytometry; format: cell-based; settings: PBMCs
Method: The capacity of each drug to inhibit CCR5 or CCR2 internalization was evaluated. Cell-surface expression of CCR5 and CCR2 was assessed by flow cytometry, and fluorescence values were converted into molecules of equivalent soluble fluorescence (MESF).

[5] = tested on: male Sprague-Dawley rats with TAA-induced fibrosis; test: Rat model of thioacetamide-induced liver fibrosis and cirrhosis; format: in vivo; settings: 8 weeks
Method: Fibrosis was induced in male Sprague-Dawley rats by intraperitoneal administration of TAA 150 mg/kg 3 times/week for 8 weeks. […] Biochemical, gene expression and histologic evaluations of the liver were conducted.

[6] = tested on: RANTES-induced Ca2+ mobilization; test: RANTES-induced Ca2+ mobilization; format: cell-based
[7] = tested on: NASH mice; test: STAM mouse model of Non-alcoholic Steatohepatitis, anti-NASH/fibrosis effects, week 9; format: in vivo
Method: NASH was induced in male mice by a single injection of […] streptozotocin 2 days after birth (causing impaired glucose control), followed by a high fat diet from 4 weeks of age. […] Animals were sacrificed at 9 weeks of age, and biochemical, gene expression, and histologic evaluations of the liver were conducted.
This in vivo efficacy study was performed to examine the effects of Cenicriviroc in the STAM™ mouse model of Non-alcoholic Steatohepatitis.

[8] = CVC-high 100 mg/kg/day, week 9, listed as Cenicriviroc
[9] = CVC-low 20 mg/kg/day, week 9, listed as Cenicriviroc

Sequence of CCR5 (P51681 whole entry): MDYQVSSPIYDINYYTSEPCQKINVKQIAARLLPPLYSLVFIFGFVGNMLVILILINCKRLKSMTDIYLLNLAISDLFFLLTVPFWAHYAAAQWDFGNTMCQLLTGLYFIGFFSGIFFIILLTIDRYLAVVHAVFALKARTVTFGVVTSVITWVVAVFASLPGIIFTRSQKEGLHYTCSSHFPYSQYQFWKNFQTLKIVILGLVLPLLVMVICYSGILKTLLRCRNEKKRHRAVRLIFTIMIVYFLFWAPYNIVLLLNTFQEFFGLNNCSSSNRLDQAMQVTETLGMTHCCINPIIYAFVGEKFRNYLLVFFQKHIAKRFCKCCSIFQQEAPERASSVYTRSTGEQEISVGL

CCCCOCCOc1ccc(-c2ccc3c(c2)/C=C(/C(=O)Nc2ccc([S@@+]([O-])Cc4cncn4CCC)cc2)CCCN3CC(C)C)cc1 [CVC, (S)-8-[4-(2-Butoxyethoxy)phenyl]-1-isobutyl-N-(4-{[(1-propyl-1H-imidazol-5-yl)methyl]sulfinyl}phenyl)-1,2,3,4-tetrahydro-1-benzazocine-5-carboxamide]
QTcF interval Prolonged (480 ms < prolonged ≤ 500 ms) [1]: 0 n (%) | generally well tolerated multiple daily doses ([2]; Phase 1, 10 days): up to 200 mg | generally well tolerated single doses ([2]; Phase 1, healthy volunteers): up to 800 mg | percent of the maximum inhibitory effect at average Css ([3]; 25 mg): 54.9% | percent of the maximum inhibitory effect at average Css ([3]; 50 mg): 79.8% | percent of the maximum inhibitory effect at average Css ([3]; 75 mg): 85.9% | percent of the maximum inhibitory effect at average Css ([3]; 150 mg): 95.9% | Emax in the PK/PD model (HIV-1 RNA) ([3]; Emax model): −1.43 log10 copies/mL | prevention of RANTES-induced CCR5 internalization [4]: at lower effective concentrations than MVC | reduction of fibrosis by collagen morphometry ([5]; Group 1a, 30 mg/kg/day concurrently with TAA): 49% | reduction of fibrosis by collagen morphometry ([5]; Group 1b, 100 mg/kg/day concurrently with TAA): 38% | RANTES-induced Ca2+ mobilization [6]: blocked | decrease of collagen type 1 mRNA in whole liver lysates ([7]; 20 and 100 mg/kg/day, week 9): 27-37% | Body weight ([7]; CVC-high 100 mg/kg/day, week 9): 18.7 ± 0.9 g | Modified Sirius red-positive area (perivascular space subtracted) ([7]; CVC-high 100 mg/kg/day, week 9): 0.20% and 0.20±0.06% | Plasma MCP-1 ([7]; CVC-high 100 mg/kg/day, week 9): 91 ± 14 pg/mL | Body weight [7, 8]: 18.7 ± 0.9 g | Modified Sirius red-positive area (perivascular space subtracted) [7, 8]: 0.20 ± 0.06% | Plasma MCP-1 [7, 8]: 91 ± 14 pg/mL | Hepatocyte ballooning score 0, number of mice ([7]; CVC-high, week 9, n = 6): 1 | Hepatocyte ballooning score 1, number of mice ([7]; CVC-high, week 9, n = 6): 2 | Hepatocyte ballooning score 2, number of mice ([7]; CVC-high, week 9, n = 6): 3 | Lobular inflammation score 1, number of mice ([7]; CVC-high, week 9, n = 6): 3 | Lobular inflammation score 2, number of mice ([7]; CVC-high, week 9, n = 6): 3 | Steatosis score 0, number of mice ([7]; CVC-high, week 9, n = 6): 1 | Steatosis score 1, number of mice ([7]; CVC-high, week 9, n = 6): 5 | Body weight ([7]; CVC-low 20 mg/kg/day, week 9): 19.5 ± 2.0 g | Liver hydroxyproline (μg/mg total protein) ([7]; CVC-low 20 mg/kg/day, week 9): 0.63±0.05 μg/mg total protein | Modified Sirius red-positive area (perivascular space subtracted) ([7]; CVC-low 20 mg/kg/day, week 9): 0.29% and 0.29±0.14% | Plasma ALT (U/L) ([7]; CVC-low 20 mg/kg/day, week 9): 58±12 U/L | Plasma MCP-1 ([7]; CVC-low 20 mg/kg/day, week 9): 68 ± 16 pg/mL | Plasma MIP-1β ([7]; CVC-low 20 mg/kg/day, week 9): 18 ± 2 pg/mL | Body weight [7, 9]: 19.5 ± 2.0 g | Liver hydroxyproline (μg/mg total protein) [7, 9]: 0.63 ± 0.05 μg/mg total protein | Modified Sirius red-positive area (perivascular space subtracted) [7, 9]: 0.29 ± 0.14% | Plasma ALT (U/L) [7, 9]: 58 ± 12 U/L | Plasma MCP-1 [7, 9]: 68 ± 16 pg/mL | Plasma MIP-1β [7, 9]: 18 ± 2 pg/mL | Hepatocyte ballooning score 1, number of mice ([7]; CVC-low, week 9, n = 6): 3 | Hepatocyte ballooning score 2, number of mice ([7]; CVC-low, week 9, n = 6): 3 | Lobular inflammation score 1, number of mice ([7]; CVC-low, week 9, n = 6): 3 | Lobular inflammation score 2, number of mice ([7]; CVC-low, week 9, n = 6): 3 | Steatosis score 1, number of mice ([7]; CVC-low, week 9, n = 6): 6 | Modified positive area (%), per mouse ([7]; Cenicriviroc-high, individual mice 301-306): 0.20% | Modified positive area (%), per photo ([7]; Cenicriviroc-high, individual mice 301-306, photos 1-5): 0.41% and 0.09% (2×) and 0.23% (2×) and 0.17% (2×) and 0.28% (2×) and 0.22% (2×) and 0.08% (3×) and 0.05% and 0.32% and 0.07% (3×) and 0.16% and 0.20% (2×) and 0.68% and 0.27% and 0.12% and 0.11% and 0.67% and 0.26% and 0.06% and 0.10% | Liver hydroxyproline (μg/mg total protein) ([7]; week 9): 0.62±0.09 μg/mg total protein | Plasma ALT (U/L) ([7]; week 9): 51±13 U/L and 52±13 U/L | Plasma MIP-1β ([7]; week 9): 20 ± 4 pg/mL | Liver hydroxyproline (μg/mg total protein) ([7]; week 9, listed as Cenicriviroc): 0.62 ± 0.09 μg/mg total protein | Plasma ALT (U/L) ([7]; week 9, listed as Cenicriviroc): 52 ± 13 U/L | Plasma MIP-1β ([7]; week 9, listed as Cenicriviroc): 20 ± 4 pg/mL
